Active and inactive are the calls of the source. The calls are words filed in the database; no cut-off is given here.
Legend:
[1] = test system: Mus musculus; experiment: Anticonvulsant activity in Mus musculus (mouse) assessed as protection against maximal electroshock-induced seizure at 300 mg/kg, ip measured after 4 hr; type: functional, organism-based; design: dose 300 mg/kg
[2] = test system: Mus musculus; experiment: Anticonvulsant activity in Mus musculus (mouse) assessed as protection against maximal electroshock-induced seizure at 300 mg/kg, ip measured after 0.5 hr; type: functional, organism-based; design: dose 300 mg/kg
[3] = (§1) Neurotoxicity in ip dosed Mus musculus (mouse) after 0.5 hr by rotorod test; type: toxicity, organism-based; settings: in vivo
[4] = (§2) Neurotoxicity in ip dosed Mus musculus (mouse) after 4 hr by rotorod test; type: toxicity, organism-based; settings: in vivo
[5] = test system: Mus musculus; experiment: Anticonvulsant activity in Mus musculus (mouse) assessed as protection against subcutaneous pentyleneterazole-induced seizure at 300 mg/kg, ip measured after 4 hr; type: functional, organism-based; design: dose 300 mg/kg
[6] = test system: Mus musculus; experiment: Anticonvulsant activity in Mus musculus (mouse) assessed as protection against subcutaneous pentyleneterazole-induced seizure at 300 mg/kg, ip measured after 0.5 hr; type: functional, organism-based; design: dose 300 mg/kg
[7] = test system: Mus musculus; experiment: Sedative-hypnotic activity in Mus musculus (mouse) assessed as inhibition of locomotory activity at 100 mg/kg, ip measured after 1 hr by actophotometer test; type: functional; settings: route intraperitoneal
[8] = test system: Rattus norvegicus; experiment: CNS depressant activity in Rattus norvegicus Wistar (rat) assessed as immobility time at 100 mg/kg, ip measured after 60 min by forced swim test (reference value: 45.6 +/- 19.45 to 180.97 +/- 14.15 sec); type: functional; settings: route intraperitoneal
[9] = test system: Mus musculus; experiment: Anticonvulsant activity in ip dosed Mus musculus (mouse) assessed as protection against maximal electroshock-induced seizure measured after 0.5 hr; type: functional; settings: read-out: MED
[10] = test system: Mus musculus; experiment: Anticonvulsant activity in ip dosed Mus musculus (mouse) assessed as protection against maximal electroshock-induced seizure measured after 4 hr; type: functional; settings: read-out: MED
[11] = test system: Mus musculus; experiment: Anticonvulsant activity in ip dosed Mus musculus (mouse) assessed as protection against subcutaneous pentyleneterazole-induced seizure measured after 0.5 hr; type: functional; settings: read-out: MED
[12] = test system: Mus musculus; experiment: as §1; type: toxicity, organism-based; settings: in vivo, 0.5 h
[13] = test system: Mus musculus; experiment: as §2; type: toxicity, organism-based; settings: in vivo, 4 h

Row | Compound | Activity [1] | Activity [2] | MTD at 0.5 h [3] | MTD at 4 h [4] | Activity [5] | Activity [6] | inhibition in vivo at 100 mg/kg [7] | Time [8] | minimal effective dose [9] | minimal effective dose [10] | minimal effective dose [11] | MTC [12] | MTC [13]
1 | Cc1nc2ccccc2c(=O)n1NC(=O)Nc1ccc([N+](=O)[O-])cc1 | inactive | inactive | 300 mg/kg | 300 mg/kg | inactive | inactive | 40% | 190.29 s |  |  |  |  | 
2 | CCc1ccc(NC(=O)Nn2c(C)nc3ccccc3c2=O)cc1 |  |  | 300 mg/kg | 300 mg/kg | inactive |  | 53% | 208.29 s | 300 mg/kg | 300 mg/kg | 300 mg/kg |  | 
3 | CCOc1ccc(NC(=O)Nn2c(C)nc3ccccc3c2=O)cc1 | inactive | inactive |  |  | inactive | inactive | 45% | 198.29 s |  |  |  | 300 mg/kg | 300 mg/kg
4 | CCC1(C)CC(=O)NC1=O (stereo not drawn) [ETHOSUXIMIDE] | inactive | inactive |  |  | inactive |  |  |  |  |  | 300 mg/kg |  | 
5 | Cc1cccc(NC(=O)Nn2c(C)nc3ccccc3c2=O)c1 | inactive | inactive | 300 mg/kg | 300 mg/kg | inactive | inactive | 51% | 218.29 s |  |  |  |  | 
6 | Cc1nc2ccccc2c(=O)n1NC(=O)Nc1ccccc1 | inactive | inactive |  | 300 mg/kg | inactive | inactive | 50% | 130.56 s |  |  |  | 300 mg/kg | 
7 | CCCC(CCC)C(=O)[O-].[Na+] [VALPROATE SODIUM] | inactive | inactive | 300 mg/kg | 300 mg/kg | inactive |  |  |  |  |  | 300 mg/kg |  | 
8 | Cc1nc2ccccc2c(=O)n1NC(=O)Nc1ccc(I)cc1 | inactive | inactive | 300 mg/kg | 300 mg/kg | inactive | inactive | 53% | 194.05 s |  |  |  |  | 

From ChEMBL document CHEMBL3045948, “Design, synthesis, and potential CNS activity of some new bioactive 1-(4-substituted-phenyl)-3-(4-oxo-2-methyl-4H-quinazolin-3-yl)-urea” (Med Chem Res, 2011)
